Source: patent US7803822B2, “Triazole derivative and use thereof” (Takeda Pharmaceutical Company Limited, priority 2005, dated 2010)

Legend:
human PAR-1 [1] = biological target: T1, human PAR-1 (Homo sapiens, UniProt P25116); test: GTPγS binding assay with membrane fraction of human PAR-1-expressing cells; type: biochemical; conditions: [35S]-GTPγS binding to human PAR-1-expressing cell membrane fraction; agonist peptide SFLLRN-NH2
T1 construct: expressed in transfected cells; host or cells: CHO-K1 (transformant flag/trn/CHO-K1)
T1 sequence (P25116 22-425): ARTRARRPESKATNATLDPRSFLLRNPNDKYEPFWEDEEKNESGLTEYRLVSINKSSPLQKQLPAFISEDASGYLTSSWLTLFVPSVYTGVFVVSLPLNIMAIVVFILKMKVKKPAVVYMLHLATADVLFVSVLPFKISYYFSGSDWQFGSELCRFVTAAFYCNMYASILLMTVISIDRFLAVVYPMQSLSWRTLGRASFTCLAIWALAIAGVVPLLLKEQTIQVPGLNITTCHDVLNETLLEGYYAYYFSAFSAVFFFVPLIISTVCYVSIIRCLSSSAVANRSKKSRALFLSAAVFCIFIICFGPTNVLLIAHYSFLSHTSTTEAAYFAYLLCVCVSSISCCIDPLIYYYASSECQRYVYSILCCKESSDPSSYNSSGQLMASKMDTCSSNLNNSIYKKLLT
Experimental: The preparation method of the membrane fraction used for the GTPγS binding assay is shown below.
Human PAR-1-expressing cells were inoculated to an F500 flask at 1.8×10^5 cells/flask, and the cells were cultured for 2 days. The cells were detached with saline containing 0.02% EDTA. The cells were centrifuged (2000 rpm, 10 min), cell pellets were re-suspended in 12 ml of homogenate buffer (10 mM NaHCO3, 1 mM EDTA, protease inhibitor cocktail, pH 7.4), and homogenized by Polytron™. The residual cells were removed by centrifugation (2000 rpm, 10 min), and the supernatant was ultracentrifuged (Beckman Instruments 70 Ti type rotor, 30000 rpm, 1 hr) to give a membrane fraction of human PAR-1-expressing cells in a sediment, which was preserved at −80° C. and dissolved before use for an assay.
The measurement method of the GTPγS binding activity is shown below.
Then, the reaction mixture was filtered through a GF/C filter, washed 4 times with 300 μL of saline, and the radioactivity of the filter was measured by a TopCount scintillation counter.
The concentration (IC50 value) of the test compound necessary for inhibiting the GTPγS binding activity by 50% was calculated using PRISM3.0 (PraphPad software).

[2] = test system: platelet rich plasma (PRP); test: Platelet aggregation test (platelet rich plasma), thrombin-induced; type: cell-based; conditions: human PRP, thrombin at minimum concentration causing maximum aggregation; test compound concentration not given
Experimental: Platelet Aggregation Test (Platelet Rich Plasma)
Using a syringe filled in advance with 3.8% sodium citrate solution (Chitral: Yamanouchi Pharmaceutical Co., Ltd.), its 9-fold volume of venous blood was taken from healthy volunteers. After blood sampling, the blood was centrifuged at room temperature, 2700 G for […] and 15 min to give platelet rich plasma (PRP) and platelet poor plasma (PPP), respectively. PRP was applied to an automated blood cell counter (Sysmex) to adjust the platelet count to 300,000/μL, and fibrin polymerization inhibitory peptide was added thereto to a final concentration of 4 mM. The platelet aggregation rate was measured using an aggregometer (Kowa). To be specific, 200 μL of PRP was placed in a cuvette with a microstirrer, preheated at 37° C. for 2 min, and a test compound solution (20 μL) was added. The mixture was further preheated at 37° C. for 2 min with stirring (1000 rpm), thrombin (20 μL) was added, and changes in the transmittance caused by platelet aggregation were recorded over time. Thrombin was used at a minimum concentration causing maximum aggregation, and the aggregation suppressive rate (%) was calculated from the ratio of the maximum aggregation rate with addition of test compound to the maximum aggregation rate of control group. The test compound was dissolved in dimethyl sulfoxide and diluted with saline before use.

human PAR-1 [3] = biological target: T1, human PAR-1; test: Evaluation of PAR-1 antagonistic action by intracellular calcium concentration variation assay (FLIPR); type: cell-based; conditions: human PAR-1-expressing CHO cells, agonist peptide SFLLRN-NH2 final concentration 0.3 nM, Fluo-3AM
Experimental: Evaluation of PAR-1 Antagonistic Action of Compound by Intracellular Calcium Concentration Variation Assay
Human PAR-1-expressing cells was plated at 3×10^4 cells/well on a 96 well clear bottom plate (Corning 3904 type) and cultured for 16-24 hr. The medium was removed from the wells of the plate, measurement buffer (50 μL, 115 mM NaCl, 5.4 mM KCl, 1.8 mM CaCl2, 0.8 mM MgCl2, 13.8 mM D-glucose, 0.1% BSA, 20 mM HEPES, pH 7.4) containing 2.5 μg/mL of Fluo-3AM (manufactured by Dojindo Laboratories), 0.08% Pluronic F-127 and 2.5 mM Probenecid was added to the cells and the mixture was reacted at 37° C. for 1 hr. The cells were washed twice with the measurement buffer. After addition of the measurement buffer (100 μL), a measurement buffer (50 μL) containing a test compound was added, and the mixture was stood still for 10 min. The plate was moved to a fluorometry image-plate reader (FLIPR-1, manufactured by Molecular Devices). […] The intracellular calcium concentration was measured by FLIPR.

SMILES | melting point | other results
CCCc1c(C(=O)NC2CC2)nnn1-c1ccc(NC(C)=O)cc1 [Compound 1, 1-[4-(acetylamino)phenyl]-N-cyclopropyl-5-propyl-1H-1,2,3-triazole-4-carboxamide, reference compound] |  | IC50 (human PAR-1 [1]): 1.9 µM; aggregation suppressive rate (%) [2]: 66%
CCCc1c(C(=O)NCc2ccc(OC)cc2)nnn1-c1ccc(NC(C)=O)cc1 [Compound 2] |  | IC50 (human PAR-1 [1]): 2.1 µM; aggregation suppressive rate (%) [2]: 39%
CCCc1c(C(=O)NCCOc2ccccc2)nnn1-c1ccc(NC(C)=O)cc1 [Compound 3] |  | IC50 (human PAR-1 [1]): 1.9 µM
CCNC(=O)c1ccc(-n2nnc(C(=O)NC3CC3)c2CCCCCF)cc1 [Example 111, N-cyclopropyl-1-{4-[(ethylamino)carbonyl]phenyl}-5-(5-fluoropentyl)-1H-1,2,3-triazole-4-carboxamide] | 150.3 °C | IC50 (human PAR-1 [3]): 1600 nM
CCNC(=O)c1ccc(-n2nnc(C(=O)NC3CC3)c2CCO)cc1 [Example 114, N-cyclopropyl-1-{4-[(ethylamino)carbonyl]phenyl}-5-(2-hydroxyethyl)-1H-1,2,3-triazole-4-carboxamide] | 156 °C | 
C=Cc1c(C(=O)NC2CC2)nnn1-c1ccc(C(=O)NCC)cc1 [Example 115, N-cyclopropyl-1-{4-[(ethylamino)carbonyl]phenyl}-5-vinyl-1H-1,2,3-triazole-4-carboxamide] | 162 °C | 
CCNC(=O)c1ccc(-n2nnc(C(=O)NC3CC3)c2CNCc2ccccc2)cc1 [Example 126, 5-[(benzylamino)methyl]-N-cyclopropyl-1-{4-[(ethylamino)carbonyl]phenyl}-1H-1,2,3-triazole-4-carboxamide] | 153 °C | 
CCNC(=O)c1ccc(-n2nnc(C(=O)NC3CC3)c2CN2CCCC2)cc1 [Example 127, N-cyclopropyl-1-{4-[(ethylamino)carbonyl]phenyl}-5-(pyrrolidin-1-ylmethyl)-1H-1,2,3-triazole-4-carboxamide] | 164 °C | 
CCNC(=O)c1ccc(-n2nnc(C(=O)NC3CC3)c2CN2CCOCC2)cc1 [Example 128, N-cyclopropyl-1-{4-[(ethylamino)carbonyl]phenyl}-5-(morpholin-4-ylmethyl)-1H-1,2,3-triazole-4-carboxamide] | 234 °C (dec.) | 
CCNC(=O)c1ccc(-n2nnc(C(=O)NC3CC3)c2CSC)cc1 [Example 129, N-cyclopropyl-1-{4-[(ethylamino)carbonyl]phenyl}-5-[(methylthio)methyl]-1H-1,2,3-triazole-4-carboxamide] | 192 °C | IC50 (human PAR-1 [3]): 740 nM
CCNC(=O)c1ccc(-n2nnc(C(=O)NC3CC3)c2COc2cccc(F)c2)cc1 [Example 414, N-cyclopropyl-1-{4-[(ethylamino)carbonyl]phenyl}-5-[(3-fluorophenoxy)methyl]-1H-1,2,3-triazole-4-carboxamide] |  | IC50 (human PAR-1 [3]): 190 nM
CCNC(=O)c1ccc(-n2nnc(C(=O)NC3CC3)c2CCCOc2ccc(OC(F)(F)F)cc2)cc1 [Example 522, N-cyclopropyl-1-{4-[(ethylamino)carbonyl]phenyl}-5-{3-[4-(trifluoromethoxy)phenoxy]propyl}-1H-1,2,3-triazole-4-carboxamide] |  | IC50 (human PAR-1 [3]): 330 nM

The next lines start with results.

melting point | SMILES | other results
203 °C | CCCc1c(C(=O)NC2CC2)nnn1-c1ccc(C(=O)NCC)cc1O [Example 315, N-cyclopropyl-1-{4-[(ethylamino)carbonyl]-2-hydroxyphenyl}-5-propyl-1H-1,2,3-triazole-4-carboxamide] | 
132 °C | CCNC(=O)c1ccc(-n2nnc(C(=O)NC3CC3)c2COCc2ccccc2)c(OCc2ccccc2)c1 [Example 316, 1-{2-(benzyloxy)-4-[(ethylamino)carbonyl]phenyl}-5-[(benzyloxy)methyl]-N-cyclopropyl-1H-1,2,3-triazole-4-carboxamide] | 
185 °C | CCNC(=O)c1ccc(-n2nnc(C(=O)NC3CC3)c2CO)c(O)c1 [Example 317, N-cyclopropyl-1-{4-[(ethylamino)carbonyl]-2-hydroxyphenyl}-5-(hydroxymethyl)-1H-1,2,3-triazole-4-carboxamide] | 
